# Data reported in US20260022143A1, “Cyclic Peptide Inhibitors of IL-23” (JANSSEN PHARMACEUTICA NV, priority 2022, published 2026).
# Starred links: 1 amine or outer side, 2 acyl side, 3 side chain; linkers in the order of their positions; H or OH if unused. Positions of bridges follow the written chain, without caps; N, C: chain ends. Non-standard residues stand in square brackets, D forms with d. Residues, ends and D or L forms follow the SMILES beside them. *: point of attachment. Me3N+CH2CH2(OCH2CH2)4CO = C[N+](C)(C)CCOCCOCCOCCOCCC(=O)*; Me3N+(CH2)2O(CH2)2O(CH2)2CO = C[N+](C)(C)CCOCCOCCC(=O)*; X35 = Cc1cccc2c(C[C@H](N[*:1])C(=O)[*:2])cn(C)c12; CH2CH2OCH2CH2OCH2CH2NMe3+ = C[N+](C)(C)CCOCCOCC*; Trp(7-Me) = Cc1cccc2c(C[C@H](N)C(=O)O)c[nH]c12; Dab(NMeAc) = CC(=O)N(C)CC[C@H](N)C(=O)O; X1 = CN(CC[C@H](N[*:1])C(=O)[*:2])[*:3]; 2Nal = N[C@@H](Cc1ccc2ccccc2c1)C(=O)O; AEF = NCCOc1ccc(C[C@H](N)C(=O)O)cc1; 3Pal = N[C@@H](Cc1cccnc1)C(=O)O; Lys(Me) = CNCCCC[C@H](N)C(=O)O; X5 = C[N+](C)(C)CCOCCOCC(=O)*; Pen = CC(C)(S)[C@H](N)C(=O)O; Thp = NC1(C(=O)O)CCOCC1; Sar = CNCC(=O)O
# What was measured:
# IL-23R = biological target: T1, IL-23R (Homo sapiens, UniProt Q5VWK5); assay: IL23R Reporter Assay; assay type: cell-based; conditions: HEK293 cells containing IL-23R, IL-12RP1 and STAT-inducible firefly luciferase reporter; 10 ng/mL IL-23 (EC90); 5 h at 37° C.; read-out: IL23R Reporter Assay
# T1 construct: host or cells: HEK293
# T1 sequence (Q5VWK5 24-629): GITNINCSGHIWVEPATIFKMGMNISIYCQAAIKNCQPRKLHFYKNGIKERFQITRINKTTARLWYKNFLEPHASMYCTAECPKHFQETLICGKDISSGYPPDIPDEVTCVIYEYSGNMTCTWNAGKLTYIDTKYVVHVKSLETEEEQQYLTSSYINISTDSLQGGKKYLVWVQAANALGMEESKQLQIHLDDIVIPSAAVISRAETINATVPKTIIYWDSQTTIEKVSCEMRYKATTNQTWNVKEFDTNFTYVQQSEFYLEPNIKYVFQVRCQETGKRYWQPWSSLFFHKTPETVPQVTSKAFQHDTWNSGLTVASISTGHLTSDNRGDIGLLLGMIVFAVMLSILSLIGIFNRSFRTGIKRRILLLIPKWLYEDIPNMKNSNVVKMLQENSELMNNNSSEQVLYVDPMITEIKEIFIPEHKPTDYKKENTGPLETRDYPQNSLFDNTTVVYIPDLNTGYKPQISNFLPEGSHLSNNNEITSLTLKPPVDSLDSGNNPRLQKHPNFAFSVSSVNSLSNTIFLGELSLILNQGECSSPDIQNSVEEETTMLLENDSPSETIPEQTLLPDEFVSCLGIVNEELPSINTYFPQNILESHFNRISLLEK
# [1] = Exposed Polar Surface Area (EPSA); assay type: physicochemical; conditions: SFC on Chirex 3014 column; sample 1 mM DMSO stock; read-out: EPSA
# Outline: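 Retention-based polarity: supercritical CO2 with 20 mM ammonium formate in MeOH (5–60%, 20%/min), Chirex 3014 column, 35 °C. Calibrated against 8 standards to give EPSA (Å^2); each sample measured twice.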
Compound,IC50 (IL-23R) [nM],EPSA [1] [A^2]
CC(=O)NCCCC[C@@H]1NC(=O)[C@H](Cc2cn(C)c3c(C)cccc23)NC(=O)[C@H]([C@@H](C)O)NC(=O)[C@H](CC(N)=O)NC(=O)[C@@H](NC(C)=O)C(C)(C)SSC(C)(C)[C@@H](C(=O)N[C@@H](Cc2ccc(OCCN)cc2)C(=O)N[C@@H](Cc2ccc3ccccc3c2)C(=O)NC2(C(=O)N[C@@H](CCC(=O)O)C(=O)N[C@@H](CC(N)=O)C(=O)N[C@@H](Cc3cccnc3)C(=O)N(C)CC(N)=O)CCOCC2)NC1=O [compound 166] (Ac-[Pen]NT[X35]K(Ac)[Pen][AEF][2Nal][Thp]EN[3Pal][Sar]-NH2; disulfide 1-6 (inferred)),3,179
"Cc1cccc2c(C[C@@H]3NC(=O)[C@H]([C@@H](C)O)NC(=O)[C@H](CC(=O)N(C)C)NC(=O)[C@@H](NC(=O)CCOCCOCCOCCOCC[N+](C)(C)C)C(C)(C)SSC(C)(C)[C@@H](C(=O)N[C@@H](Cc4ccc(OCCN)cc4)C(=O)N[C@@H](Cc4ccc5ccccc5c4)C(=O)NC4(C(=O)N[C@@H](CCN(C)C(=O)COCCOCC[N+](C)(C)C)C(=O)N[C@@H](CC(N)=O)C(=O)N[C@@H](Cc5cccnc5)C(=O)N(C)CC(=O)N(C)C)CCOCC4)NC(=O)[C@H](CCN(C)C(=O)COCCOCC[N+](C)(C)C)NC3=O)c[nH]c12 [compound 172, cPEG5aCO-Pen(3)-N(N(Me)2)-T-7MeW-Dab(NMecPEG2a)-Pen(3)-AEF-2Nal-THP-Dab(NMecPEG2a)-N-3Pya-Sar-CON(Me)2] ({Me3N+CH2CH2(OCH2CH2)4CO}-[Pen]D(NMe2)T[Trp(7-Me)][X1](X5)[Pen][AEF][2Nal][Thp][X1](X5)N[3Pal][Sar]-NMe2; disulfide 1-6)",6.5,145
"CC(=O)N(C)CC[C@H](NC(=O)C1(NC(=O)[C@H](Cc2ccc3ccccc3c2)NC(=O)[C@H](Cc2ccc(OCCN)cc2)NC(=O)[C@H]2NC(=O)[C@H](CCC(=O)N(C)C)NC(=O)[C@H](Cc3c[nH]c4c(C)cccc34)NC(=O)[C@H]([C@@H](C)O)NC(=O)[C@H](CC(=O)N(C)C)NC(=O)[C@@H](NC(=O)CCOCCOCCOCCOCC[N+](C)(C)C)C(C)(C)SSC2(C)C)CCOCC1)C(=O)N[C@@H](CC(N)=O)C(=O)N[C@@H](Cc1cccnc1)C(=O)N(C)CC(=O)N(C)C [compound 173, cPEG5aCO-Pen(3)-N(N(Me)2)-T-7MeW-Q(N(Me)2)-Pen(3)-AEF-2Nal-THP-Dab(NMeAc)-N-3Pya-Sar-CON(Me)2] ({Me3N+CH2CH2(OCH2CH2)4CO}-[Pen]D(NMe2)T[Trp(7-Me)]E(NMe2)[Pen][AEF][2Nal][Thp][Dab(NMeAc)]N[3Pal][Sar]-NMe2; disulfide 1-6 (inferred))",3.1,144
"CC(=O)N[C@@H]1C(=O)N[C@@H](CC(=O)N(C)C)C(=O)N[C@@H]([C@@H](C)O)C(=O)N[C@@H](Cc2c[nH]c3c(C)cccc23)C(=O)N[C@@H](CCN(C)C(=O)CCOCCOCC[N+](C)(C)C)C(=O)N[C@H](C(=O)N[C@@H](Cc2ccc(OCCN)cc2)C(=O)N[C@@H](Cc2ccc3ccccc3c2)C(=O)NC2(C(=O)N[C@@H](CCN(C)C(=O)CCOCCOCC[N+](C)(C)C)C(=O)N[C@@H](CC(N)=O)C(=O)N[C@@H](Cc3cccnc3)C(=O)N(C)CC(=O)N(C)C)CCOCC2)C(C)(C)SSC1(C)C [compound 175, MeCO-Pen(3)-N(N(Me)2)-T-7MeW-Dab(NMecPEG3a)-Pen(3)-AEF-2Nal-THP-Dab(NMecPEG3a)-N-3Pya-Sar-CON(Me)2] (Ac-[Pen]D(NMe2)T[Trp(7-Me)][X1](Me3N+(CH2)2O(CH2)2O(CH2)2CO)[Pen][AEF][2Nal][Thp][X1](Me3N+(CH2)2O(CH2)2O(CH2)2CO)N[3Pal][Sar]-NMe2; disulfide 1-6 (inferred))",6.3,140
"CC(=O)N(C)CCCC[C@@H]1NC(=O)[C@H](Cc2c[nH]c3c(C)cccc23)NC(=O)[C@H]([C@@H](C)O)NC(=O)[C@H](CC(=O)N(C)C)NC(=O)[C@@H](NC(=O)CCOCCOCC[N+](C)(C)C)C(C)(C)SSC(C)(C)[C@@H](C(=O)N[C@@H](Cc2ccc(OCCN)cc2)C(=O)N[C@@H](Cc2ccc3ccccc3c2)C(=O)NC2(C(=O)N[C@@H](CCN(C)C(C)=O)C(=O)N[C@@H](CC(N)=O)C(=O)N[C@@H](Cc3cccnc3)C(=O)N(C)CC(=O)N(C)C)CCOCC2)NC1=O [compound 177, cPEG3aCO-Pen(3)-N(N(Me)2)-T-7MeW-K(NMeAc)-Pen(3)-AEF-2Nal-THP-Dab(NMeAc)-N-3Pya-Sar-CON(Me)2] ({Me3N+(CH2)2O(CH2)2O(CH2)2CO}-[Pen]D(NMe2)T[Trp(7-Me)][Lys(Me)](Ac)[Pen][AEF][2Nal][Thp][Dab(NMeAc)]N[3Pal][Sar]-NMe2; disulfide 1-6)",2,149
"CC(=O)N(C)CC[C@H](NC(=O)C1(NC(=O)[C@H](Cc2ccc3ccccc3c2)NC(=O)[C@H](Cc2ccc(OCCN)cc2)NC(=O)[C@H]2NC(=O)[C@H](CCC(=O)N(C)C)NC(=O)[C@H](Cc3c[nH]c4c(C)cccc34)NC(=O)[C@H]([C@@H](C)O)NC(=O)[C@H](CC(N)=O)NC(=O)[C@@H](NC(=O)CCOCCOCC[N+](C)(C)C)C(C)(C)SSC2(C)C)CCOCC1)C(=O)N[C@@H](CC(N)=O)C(=O)N[C@@H](Cc1cccnc1)C(=O)N(C)CC(N)=O [compound 178, cPEG3aCO-Pen(3)-N-T-7MeW-Q(N(Me)2)-Pen(3)-AEF-2Nal-THP-Dab(NMeAc)-N-3Pya-Sar-CONH2] ({Me3N+(CH2)2O(CH2)2O(CH2)2CO}-[Pen]NT[Trp(7-Me)]E(NMe2)[Pen][AEF][2Nal][Thp][Dab(NMeAc)]N[3Pal][Sar]-NH2; disulfide 1-6)",2,154
"CC(=O)N[C@@H]1C(=O)N[C@@H](CC(=O)N(C)C)C(=O)N[C@@H]([C@@H](C)O)C(=O)N[C@@H](Cc2c[nH]c3c(C)cccc23)C(=O)N[C@@H](CCCCN(C)C(C)=O)C(=O)N[C@H](C(=O)N[C@@H](Cc2ccc(OCCOCCOCC[N+](C)(C)C)cc2)C(=O)N[C@@H](Cc2ccc3ccccc3c2)C(=O)NC2(C(=O)N[C@@H](CCCCN(C)C(C)=O)C(=O)N[C@@H](CC(N)=O)C(=O)N[C@@H](Cc3cccnc3)C(=O)N(C)CC(=O)N(C)C)CCOCC2)C(C)(C)SSC1(C)C [compound 183, MeCO-Pen(3)-N(N(Me)2)-T-7MeW-K(NMeAc)-Pen(3)-APEG3F-2Nal-THP-K(NMeAc)-N-3Pya-Sar-CON(Me)2] (Ac-[Pen]D(NMe2)T[Trp(7-Me)][Lys(Me)](Ac)[Pen]Y(CH2CH2OCH2CH2OCH2CH2NMe3+)[2Nal][Thp][Lys(Me)](Ac)N[3Pal][Sar]-NMe2; disulfide 1-6)",1.8,133
"CC(=O)N(C)CCCC[C@@H]1NC(=O)[C@H](Cc2c[nH]c3c(C)cccc23)NC(=O)[C@H]([C@@H](C)O)NC(=O)[C@H](CC(=O)N(C)C)NC(=O)[C@@H](NC(=O)CCOCCOCC[N+](C)(C)C)C(C)(C)SSC(C)(C)[C@@H](C(=O)N[C@@H](Cc2ccc(OCCOCCOCC[N+](C)(C)C)cc2)C(=O)N[C@@H](Cc2ccc3ccccc3c2)C(=O)NC2(C(=O)N[C@@H](CCC(=O)O)C(=O)N[C@@H](CC(N)=O)C(=O)N[C@@H](Cc3cccnc3)C(=O)N(C)CC(=O)N(C)C)CCOCC2)NC1=O [compound 184, cPEG3aCO-Pen(3)-N(N(Me)2)-T-7MeW-K(NMeAc)-Pen(3)-APEG3F-2Nal-THP-E-N-3Pya-Sar-CON(Me)2] ({Me3N+(CH2)2O(CH2)2O(CH2)2CO}-[Pen]D(NMe2)T[Trp(7-Me)][Lys(Me)](Ac)[Pen]Y(CH2CH2OCH2CH2OCH2CH2NMe3+)[2Nal][Thp]EN[3Pal][Sar]-NMe2; disulfide 1-6)",3.4,142
